According to PMC6857076 (Pharmacology Research & Perspectives, 2019):
Like-named read-outs stand apart in the source and are kept apart here.

Assays:
[1] = unbound, Cav × fu
[2] = tested on: CRP; details: RA, cited from earlier work
[3] = biological target: recombinant human kinase domain of TYK2 (Homo sapiens, UniProt P29597); experiment: Enzymatic microfluidic kinase assay, TYK2
[4] = human; baricitinib 4 mg QD; cited from earlier work
[5] = tested on: platelet counts; details: integrated analysis of phase 1b, 2, 3 and LTE RA studies, baricitinib 4 mg QD; cited from earlier work
[6] = tested on: NK cell counts; details: RA, baricitinib 4 mg QD, cited from earlier work
[7] = in vitro; details: both, human, pooled human plasma
[8] = pooled RA clinical studies, cited from earlier work
[9] = integrated analysis of phase 1b, 2, 3 and LTE RA studies, baricitinib 4 mg QD; cited from earlier work

recombinant human kinase domain of TYK2, sequence (P29597 897-1176 limits assumed): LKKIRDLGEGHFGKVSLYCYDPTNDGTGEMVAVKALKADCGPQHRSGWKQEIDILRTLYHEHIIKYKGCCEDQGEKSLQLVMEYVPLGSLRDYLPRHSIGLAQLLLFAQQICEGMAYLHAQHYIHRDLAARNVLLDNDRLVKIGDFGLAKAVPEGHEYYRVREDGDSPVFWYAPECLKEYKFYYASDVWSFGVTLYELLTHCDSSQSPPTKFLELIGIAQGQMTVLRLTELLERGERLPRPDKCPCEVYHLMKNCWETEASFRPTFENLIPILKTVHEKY

C[C@@H]1CCN(C(=O)CC#N)C[C@@H]1N(C)c1ncnc2[nH]ccc12 [Tofacitinib]
Cav,u ([1]; tofacitinib 5 mg BID): 41.0 nM
reduction of CRP levels from baseline to week 12 ([2]; tofacitinib 5 mg BID): -10.1 mg/L

CCS(=O)(=O)N1CC(CC#N)(n2cc(-c3ncnc4[nH]ccc34)cn2)C1 [Baricitinib]
IC50 [3]: 14 nM
Cav [4]: 27 nM
Cav,u ([1]; baricitinib 4 mg QD): 16.0 nM
platelet counts vs baseline [5]: initial increase in platelet counts, which then returned toward baseline
change from baseline in NK cell counts ([6]; week 12): −57.0 cells/mm^3
change from baseline in NK cell counts ([6]; week 24): −53.4 cells/mm^3
fraction unbound at 6 h, 1 μmol/L [7]: 0.59
herpes zoster incidence rate ([8]; baricitinib 2 mg QD): 2.7 events per 100 patient-years
herpes zoster incidence rate ([8]; baricitinib 4 mg QD): 4.3 events per 100 patient-years
reduction of CRP levels from baseline to week 12 ([2]; baricitinib 4 mg QD): approximately −10 mg/L
hemoglobin levels vs baseline [9]: decreased from baseline to week 20, then returned to baseline or higher
